Structures can show the parent of a compound that is named as a salt.
Columns and labels:
total serum testosterone = assay: Serum testosterone in male baboons given Clomid, Enclomid or Zuclomid; format: in vivo; details: for effect on total serum testosterone: 1.5 mg/kg for 12 days, vs baseline or day 0
Text: There were significant increases in total serum testosterone in the group receiving Enclomid. There were no differences among groups in the baseline period or at day 0. There were also no differences among the three groups 7 days after treatment (the washout period). However, Enclomid produced higher levels of testosterone compared to Clomid and Zuclomid on day 6 (p=0.03 and p=0.00002 respectively) and compared to Zuclomid on day 12 (p=0.047). […] Enclomid was clearly better and more consistent than Clomid itself and Zuclomid was ineffective.

[1] = in vivo
Experimental: Adult, male, Baboons were given 1.5 mg/kg of Clomid (clomiphene citrate), Enclomid (trans-Clomiphene) or Zuclomid (cis-clomiphene) for 12 consecutive days. The samples analyzed were sera taken on the day of first treatment before being given test article (day 0), after 12 days of treatment (day 12) and 7 days after the last treatment (end or wash-out).

fasting glucose levels = details: patients with BMI>26; 50 mg dose; at the 3 and 4.5 month periods
Experimental: A placebo controlled study was conducted to determine the effects of orally administered Androxal™ (trans-clomiphene) and Androgel® on blood glucose levels.
The study enrolled hypogonadal men (testosterone less than 300 ng/dl) with a broad range of body mass indices (BMI). […] The placebo and Androxal™ doses were administered in a double blind fashion. The Androgel® cream was administered in an open label fashion. Fasting glucose levels were monitored in the patients immediately prior to treatment (baseline) and at regular intervals during the study.

total testosterone = details: hypogonadal men; 50 mg dose
Experimental: (§1) A placebo controlled challenge study was conducted at the Advanced Biological Research, Inc. (ABR) Clinical Research Center in Hackensack, N.J. to compare orally administered Androxal™ (trans-clomiphene) to Androgel® in hypogonadal men.
(§2) Half of the men in each of the Androxal™ and placebo arms were randomized into cohorts that underwent in-clinic sessions on days 1 and 14 to determine pharmacokinetic parameters for Androxal™ as well as cyclical changes in testosterone. The placebo and Androxal™ doses were administered in a double blind fashion. The Androgel® cream was administered in an open label fashion. Half of the Androgel® patients underwent in-clinic sessions similar to the other patients in the study. Following the two week drug exposure, patients were followed for an additional seven to ten days to determine the status of their testosterone levels.

[2] = Androxal vs Androgel study: other clinical chemistry (DHT/TT, triglycerides) and side effects; format: in vivo; details: hypogonadal men, after two weeks of therapy; non-dose dependent
serum LH, FSH, PRL = assay: Body weight and serum LH, FSH, PRL in male baboons; format: in vivo; details: during the study
Text: There were no changes in serum LH or FSH. […] There was also no change in body weight during the 12 day study.

serum LH and FSH = details: hypogonadal male subjects, two week treatment
Experimental: as §1, §2

Row | SMILES | effect on total serum testosterone (total serum testosterone) | ALT/SGPT [1] | BUN and BUN/creatinine [1] | serum carbon dioxide [1] | increase in serum glucose ([1]; 1.5 mg/kg) | reduction in serum glucose from baseline (fasting glucose levels) [mg/dL] | mean total testosterone after 15 days (total testosterone) [ng/dL] | reduction in triglycerides, average decrease [2] [%] | total serum testosterone after cessation of treatment (total serum testosterone; day 12 to day 18 (washout)) | percent of granulocytes in the blood [1] | platelet count [1] | serum alkaline phosphatase (ALP) [1] | counts of eosinophiles ([1]; 1.5 mg/kg) | effects on the red blood cell population ([1]; 1.5 mg/kg) | serum prolactin (PRL) (serum LH, FSH, PRL) | serum levels of FSH (serum LH and FSH)
1 | CCN(CC)CCOc1ccc(C(=C(Cl)c2ccccc2)c2ccccc2)cc1 [Clomid, clomiphene citrate] | more variable total testosterone levels on day 6 and later | out of range low at the end of the study | altered during the study | higher than reference values on day 12 | within the normal range |  |  |  |  |  |  |  |  |  |  | 
2 | CCN(CC)CCOc1ccc(/C(=C(\Cl)c2ccccc2)c2ccccc2)cc1 [Enclomid, trans-clomiphene] | significantly and statistically raised total serum testosterone on days 6 and 12 |  | altered during the study |  | no increases with treatment | ~24 | 589 ± 172 | 19.1 | significant drop in the level of total serum testosterone between day 12 and day 18 | strong effect of Enclomid on lowering the percent of granulocytes | pushed the platelet count to its normal male level | decreased in value | raising the counts of lymphocytes and eosinophiles | substantive effects on the red blood cell population | decrease in serum prolactin (PRL) | boosts serum FSH
3 | CCN(CC)CCOc1ccc(/C(=C(/Cl)c2ccccc2)c2ccccc2)cc1 [Zuclomid, cis-clomiphene] |  |  |  | higher than reference values on day 12 | within the normal range |  |  |  |  |  |  | not elevated |  | substantive effects on the red blood cell population |  | 
